Measured values reported in US20230391786A1, “cGAS INHIBITORS” (Eli Lilly and Company, priority 2022, published 2023).
Where a name gives a salt, the structure may show the parent alone. Read-outs that look alike come from different tables or passages of the source.

Experiments:
[1] = target: recombinant human cGAS (Homo sapiens (Human), UniProt Q8N884); test: In vitro inhibition assay of cGAS activity (cGAMP production, RapidFire mass spectrometry); type: biochemical; conditions: 10 nM recombinant human cGAS, 60 nM 75-bp dsDNA, ATP, GTP, room temperature 3 hours, read-out: IC50 (μM), In vitro inhibition assay for Compounds 95-348
recombinant human cGAS, sequence (Q8N884 whole entry): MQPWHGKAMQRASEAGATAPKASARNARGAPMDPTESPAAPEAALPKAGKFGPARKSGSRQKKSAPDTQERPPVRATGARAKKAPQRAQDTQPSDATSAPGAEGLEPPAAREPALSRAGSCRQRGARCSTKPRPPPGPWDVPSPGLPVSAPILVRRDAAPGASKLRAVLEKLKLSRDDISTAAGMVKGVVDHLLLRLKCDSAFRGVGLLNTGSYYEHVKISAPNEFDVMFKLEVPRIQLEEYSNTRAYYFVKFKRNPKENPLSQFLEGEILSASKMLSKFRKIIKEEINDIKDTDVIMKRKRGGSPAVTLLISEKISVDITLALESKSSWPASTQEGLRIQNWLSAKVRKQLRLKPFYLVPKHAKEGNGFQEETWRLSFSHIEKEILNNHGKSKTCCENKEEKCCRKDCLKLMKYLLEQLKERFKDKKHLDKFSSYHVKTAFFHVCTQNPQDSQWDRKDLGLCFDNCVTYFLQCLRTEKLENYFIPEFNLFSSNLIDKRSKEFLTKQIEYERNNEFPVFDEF
Outline: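 Full-length His6-tagged human cGAS (10 nM, E. coli-expressed) was incubated 3 h at room temperature with 60 nM 75-bp dsDNA, ATP, 50 μM GTP and compound at pH 7.5 with 5 mM MgCl2. cGAMP formation was measured by RapidFire mass spectrometry, and IC50 was taken from a 4-parameter logistic fit.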

[2] = test system: cGAS activity in THP1 cells (IFNb as marker); test: Cellular assay to measure cGAS activity (IFNb production in PMA-differentiated THP1 cells stimulated by RDG-Adenovirus-GFP); type: cell-based, human; conditions: PMA differentiated, RDG-Adenovirus-GFP 1000 MOI, IFNb AlphaLISA, overnight incubation, read-out: IC50 (μM), Cellular assay for Compounds 95-348
Outline: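 PMA-differentiated THP1 cells were infected with RDG-Adenovirus-GFP at 1000 MOI for 4 h, then exposed overnight to test compounds. IFNb in the supernatant was quantified by AlphaLISA as a cGAS activity marker, and IC50 was fitted with a 4-parameter logistic equation.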

[3] = Homo sapiens, THP-1, THP1 cells

IC50 [1] [µM] | IC50 [2, 3] [µM] | IC50 ([2]; THP1 cells) [µM] | SMILES
0.0348 | 0.35 | – | O=C(Nc1cc(Cl)cc2[nH]cc(-c3cn[nH]c3)c12)C(F)F [Example 219, N-(6-Chloro-3-(1H-pyrazol-4-yl)-1H-indol-4-yl)-2,2-difluoroacetamide]
0.0235 | > 10 | – | O=C(CO)Nc1nnc(-c2[nH]c3c(Cl)c(Cl)ccc3c2-c2cn[nH]c2)o1 [Example 257, N-[5-[6,7-Dichloro-3-(1H-pyrazol-4-yl)-1H-indol-2-yl]-1,3,4-oxadiazol-2-yl]-2-hydroxy-acetamide]
0.0563 | 2.27 | – | Clc1ccc2c(-c3cn[nH]c3)cn(-c3c[nH]nn3)c2c1 [Example 226, 6-Chloro-3-(1H-pyrazol-4-yl)-1-(1H-triazol-4-yl)indole]
0.0131 | 0.455 | – | N#CCOc1cc(Cl)c(Cl)c2c1c(-c1cn[nH]c1)c1n2CCN(C(=O)c2cnccn2)C1 [Example 286, 2-((6,7-Dichloro-2-(pyrazine-2-carbonyl)-10-(1H-pyrazol-4-yl)-1,2,3,4-tetrahydropyrazino[1,2-a]indol-9-yl)oxy)acetonitrile]
0.0391 | 2.19 | – | OC1Cc2c(-c3cn[nH]c3)c3ccc(Cl)c(Cl)c3n2C1 (stereo not shown) [Example 278, 5,6-Dichloro-9-(1H-pyrazol-4-yl)-2,3-dihydro-1H-pyrrolo[1,2-a]indol-2-ol]
0.0693 | 2.02 | – | Cn1cc(-n2cc(-c3cn[nH]c3)c3ccc(Cl)cc32)nn1 [Example 230, 6-Chloro-1-(1-methyltriazol-4-yl)-3-(1H-pyrazol-4-yl)indole]
0.0452 | 2.34 | – | OCC(O)CNc1cc(Cl)c(Cl)c2[nH]cc(-c3cn[nH]c3)c12 (single isomer, unassigned) [Example 261, 3-[[6,7-Dichloro-3-(1H-pyrazol-4-yl)-1H-indol-4-yl]amino]propane-1,2-diol]
0.0812 | 3.2 | – | O=C(NCc1[nH]c2c(Cl)c(Cl)ccc2c1-c1cn[nH]c1)C1(O)COC1 [Example 223, N-[[6,7-Dichloro-3-(1H-pyrazol-4-yl)-1H-indol-2-yl]methyl]-3-hydroxy-oxetane-3-carboxamide]
0.0724 | 1.01 | – | CC(=S)Nc1cc(Cl)c(Cl)c2[nH]cc(-c3cn[nH]c3)c12 [Example 231, N-[6,7-Dichloro-3-(1H-pyrazol-4-yl)-1H-indol-4-yl]thioacetamide]
0.464 | > 10 | – | OCCC1CCn2c1c(-c1cn[nH]c1)c1ccc(Cl)c(Cl)c12 (single isomer, unassigned; isomer 1) [Example 242, 2-(5,6-Dichloro-9-(1H-pyrazol-4-yl)-2,3-dihydro-1H-pyrrolo[1,2-a]indol-1-yl)ethan-1-ol isomer 1]
0.0306 | > 10 | – | NC(=O)COc1cc(Cl)c(Cl)c2c1c(-c1cn[nH]c1)c1n2CCN(C(=O)CO)C1 [Example 269, 2-[[6,7-Dichloro-2-(2-hydroxyacetyl)-10-(1H-pyrazol-4-yl)-3,4-dihydro-1H-pyrazino[1,2-a]indol-9-yl]oxy]acetamide]
0.0445 | 1.58 | – | O=C(Nc1cc(Cl)c(Cl)c2c1c(-c1cn[nH]c1)c1n2CCN(C(=O)Cc2cnccn2)C1)C(F)F [Example 277, N-[6,7-Dichloro-2-(2-pyrazin-2-ylacetyl)-10-(1H-pyrazol-4-yl)-3,4-dihydro-1H-pyrazino[1,2-a]indol-9-yl]-2,2-difluoro-acetamide]
0.015 | 1.74 | – | O=C(CO)NC1CCn2c1c(-c1cn[nH]c1)c1ccc(Cl)c(Cl)c12 (stereo not shown) [Example 237, N-(5,6-Dichloro-9-(1H-pyrazol-4-yl)-2,3-dihydro-1H-pyrrolo[1,2-a]indol-1-yl)-2-hydroxyacetamide]
0.0794 | 2.12 | – | CNCC(=O)NCc1[nH]c2c(Cl)c(Cl)ccc2c1-c1cn[nH]c1 [Example 217, N-[[6,7-Dichloro-3-(1H-pyrazol-4-yl)-1H-indol-2-yl]methyl]-2-(methylamino)acetamide formic acid salt]
0.0396 | – | > 10 | O=C(CO)NC1Cc2c(-c3cn[nH]c3)c3ccc(Cl)c(Cl)c3n2C1 (single isomer, unassigned) [Example 248, N-(5,6-Dichloro-9-(1H-pyrazol-4-yl)-2,3-dihydro-1H-pyrrolo[1,2-a]indol-2-yl)-2-hydroxyacetamide]
0.0927 | > 10 | – | CC(=O)Nc1cc(Cl)c(Cl)c2[nH]c(CNC(=O)CO)c(-c3cn[nH]c3)c12 [Example 222, N-[[4-Acetamido-6,7-dichloro-3-(1H-pyrazol-4-yl)-1H-indol-2-yl]methyl]-2-hydroxy-acetamide]

The remaining lines, values behind:

SMILES | IC50 [1] [µM] | IC50 [2, 3] [µM] | IC50 ([2]; THP1 cells) [µM]
FC(F)CCNc1cc(Cl)c(Cl)c2[nH]cc(-c3cn[nH]c3)c12 [Example 188, 6,7-Dichloro-N-(3,3-difluoropropyl)-3-(1H-pyrazol-4-yl)-1H-indol-4-amine] | 0.0541 | 2.45 | –
Cc1nnc(N2CCn3c(c(-c4cn[nH]c4)c4c(OCC#N)cc(Cl)c(Cl)c43)C2)s1 [Example 203, 2-((6,7-Dichloro-2-(5-methyl-1,3,4-thiadiazol-2-yl)-10-(1H-pyrazol-4-yl)-1,2,3,4-tetrahydropyrazino[1,2-a]indol-9-yl)oxy)acetonitrile] | 0.00677 | 0.374 | –
OCC(F)CNc1cc(Cl)c(Cl)c2[nH]cc(-c3cn[nH]c3)c12 (stereo not shown) [Example 187, 3-[[6,7-Dichloro-3-(1H-pyrazol-4-yl)-1H-indol-4-yl]amino]-2-fluoro-propan-1-ol] | 0.0104 | 0.326 | –
Cn1c(CNC(=O)CO)c(-c2cn[nH]c2)c2ccc(Cl)c(Cl)c21 [Example 133, N-[[6,7-Dichloro-1-methyl-3-(1H-pyrazol-4-yl)indol-2-yl]methyl]-2-hydroxy-acetamide] | 0.0112 | 0.498 | –
CN(C)C(=O)CCC(=O)N1CCn2c(c(-c3cn[nH]c3)c3c(OCC#N)cc(Cl)c(Cl)c32)C1 [Example 113, 4-[6,7-Dichloro-9-(cyanomethoxy)-10-(1H-pyrazol-4-yl)-3,4-dihydro-1H-pyrazino[1,2-a]indol-2-yl]-N,N-dimethyl-4-oxo-butanamide] | 0.018 | 3.46 | –
F[C@H]1C[C@@H](Nc2cc(Cl)c(Cl)c3[nH]cc(-c4cn[nH]c4)c23)C1 [Example 208, Cis-6,7-Dichloro-N-(3-fluorocyclobutyl)-3-(1H-pyrazol-4-yl)-1H-indol-4-amine] | 0.0416 | 2.54 | –
FC(F)(F)c1nnc(-c2[nH]c3c(Cl)c(Cl)ccc3c2-c2cn[nH]c2)o1 [Example 128, 2-(6,7-Dichloro-3-(1H-pyrazol-4-yl)-1H-indol-2-yl)-5-(trifluoromethyl)-1,3,4-oxadiazole] | 0.0691 | > 10 | –
CN1CCOC[C@@H]1CC(=O)N1CCn2c(c(-c3cn[nH]c3)c3c(OCC#N)cc(Cl)c(Cl)c32)C1 [Example 114, (S)-2-((6,7-Dichloro-2-(2-(4-methylmorpholin-3-yl)acetyl)-10-(1H-pyrazol-4-yl)-1,2,3,4-tetrahydropyrazino[1,2-a]indol-9-yl)oxy)acetonitrile] | 0.0244 | 1.53 | –
O=C1NCC(C(=O)N2CCn3c(c(-c4cn[nH]c4)c4ccc(Cl)c(Cl)c43)C2)O1 (stereo not shown) [Example 180, 5-[6,7-Dichloro-10-(1H-pyrazol-4-yl)-3,4-dihydro-1H-pyrazino[1,2-a]indole-2-carbonyl]oxazolidin-2-one] | 0.018 | 1.85 | –
NC(=O)NCc1[nH]c2c(Cl)c(Cl)ccc2c1-c1cn[nH]c1 [Example 164, [6,7-Dichloro-3-(1H-pyrazol-4-yl)-1H-indol-2-yl]methylurea] | 0.0543 | 1.34 | –
O=C(NC1CCc2c(-c3cn[nH]c3)c3ccc(Cl)c(Cl)c3n2C1)C1CCOCC1 (stereo not shown) [Example 96, N-[3,4-Dichloro-10-(1H-pyrazol-4-yl)-6,7,8,9-tetrahydropyrido[1,2-a]indol-7-yl]tetrahydropyran-4-carboxamide] | 0.0449 | 2.43 | –
NCCOCCOCCOCCC(=O)NC1CCc2c(-c3cn[nH]c3)c3ccc(Cl)c(Cl)c3n2C1 (stereo not shown) [Example 124, 3-[2-[2-(2-Aminoethoxy)ethoxy]ethoxy]-N-[3,4-dichloro-10-(1H-pyrazol-4-yl)-6,7,8,9-tetrahydropyrido[1,2-a]indol-7-yl]propanamide] | 0.0882 | > 10 | –
CC(CO)CNc1cc(Cl)c(Cl)c2[nH]cc(-c3cn[nH]c3)c12 (stereo not shown) [Example 205, 3-[[6,7-Dichloro-3-(1H-pyrazol-4-yl)-1H-indol-4-yl]amino]-2-methyl-propan-1-ol] | 0.0287 | 1.32 | –
COc1cc(Cl)cc2c1c(-c1cn[nH]c1)cn2-c1cn(CCO)nn1 [Example 161, 2-[4-[6-Chloro-4-methoxy-3-(1H-pyrazol-4-yl)indol-1-yl]triazol-1-yl]ethanol] | 0.0616 | 1.01 | –
Cc1nnc(-c2[nH]c3c(Cl)c(Cl)ccc3c2-c2cn[nH]c2)s1 [Example 158, 2-(6,7-Dichloro-3-(1H-pyrazol-4-yl)-1H-indol-2-yl)-5-methyl-1,3,4-thiadiazole] | 0.0507 | 0.363 | –
O=C(Nc1cc(Cl)c(F)c2c1c(-c1cn[nH]c1)cn2-c1cn(CCO)nn1)C(F)F [Example 172, N-[6-Chloro-7-fluoro-1-[1-(2-hydroxyethyl)triazol-4-yl]-3-(1H-pyrazol-4-yl)indol-4-yl]-2,2-difluoro-acetamide] | 0.0341 | 0.651 | –
